Measured values as given in PubChem BioAssay (NCI).
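Method: 48-hour compound exposure of cells in 96-well plates, five concentrations, linear interpolation of endpoints. The concentration for 50% growth inhibition is given as GI50. TGI: concentration producing complete growth inhibition.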 Where a SMILES comes first, the peptide text is derived from it. The star is where a group is joined. Boc = CC(C)(C)OC(=O)*; OBn = c1ccc(CO*)cc1

What was measured:
Test in all cases: NCI anticancer screen, dose series, 48 h
BT-549 breast = tested on: BT-549 breast
CCRF-CEM leukemia = tested on: CCRF-CEM leukemia
HCC-2998 colon = tested on: HCC-2998 colon
IGROV1 ovarian = tested on: IGROV1 ovarian
OVCAR-3 ovarian = tested on: OVCAR-3 ovarian
RPMI-8226 leukemia = tested on: RPMI-8226 leukemia
RXF 393 renal = tested on: RXF 393 renal
SF-268 CNS = tested on: SF-268 CNS
SK-MEL-28 melanoma = tested on: SK-MEL-28 melanoma
TK-10 renal = tested on: TK-10 renal

Compound	TGI (BT-549 breast) [µM]	TGI (CCRF-CEM leukemia) [µM]	TGI (HCC-2998 colon) [µM]	TGI (IGROV1 ovarian) [µM]	TGI (OVCAR-3 ovarian) [µM]	TGI (RPMI-8226 leukemia) [µM]	TGI (RXF 393 renal) [µM]	TGI (SF-268 CNS) [µM]	TGI (SK-MEL-28 melanoma) [µM]	TGI (TK-10 renal) [µM]	GI50 (RPMI-8226 leukemia) [µM]	GI50 (OVCAR-3 ovarian) [µM]
COc1cccc(C2SCC(=O)N2c2ccc(-n3c(-c4ccccc4)nc4ccccc4c3=O)cc2)c1OC (stereo not given)	> 100	> 100	> 100	> 100	> 100	> 100	> 100	> 100	> 100	> 100	–	–
CCOC(=O)/C=C(\C(=O)OCC)n1ccc(=O)n(CC(=O)OCC)c1=O	29.1	3.29	32.2	19.3	12.5	7.67	2.97	41.1	15.7	6.04	2.81	–
c1ccc2c(c1)nc1n2C2CCC(C2)N1 (stereo not given)	> 10	> 10	> 10	> 10	> 10	> 10	> 10	> 10	> 10	> 10	–	–
Cc1n[nH]c(=O)n1/N=C\CC/C=N\n1c(C)n[nH]c1=O	> 100	> 100	> 100	> 100	> 100	> 100	> 100	> 100	> 100	> 100	–	–
O=C(NCCc1ccccc1)c1c(O)c2ccccc2[nH]c1=O	> 100	> 100	> 100	> 100	> 100	> 100	> 100	> 100	> 100	> 100	–	–
Oc1ccc(/C=C/c2ccc3cccc(O)c3n2)cc1O	4.03	> 100	26.9	> 100	46	78	7.4	> 100	89.5	90.8	–	–
COc1ccc(C2(O)c3ccccc3C(=O)N(C)C2(O)c2ccc(OC)cc2)cc1 (stereo not given)	> 100	> 100	> 100	> 100	> 100	> 100	> 100	> 100	> 100	> 100	–	–
CC(NC(=O)C(Cc1ccccc1)NC(=O)C(Cc1ccccc1)NC(=O)OC(C)(C)C)C(=O)OCc1ccccc1 (stereo not drawn) (Boc-Phe-Phe-Ala-OBn; configuration not given here)	> 100	> 100	> 100	> 100	> 100	> 100	> 100	> 100	–	> 100	–	–
c1ccc2cc(CNCCOCCOCCNCc3ccc4ccccc4c3)ccc2c1	3.3	4.46	0.54	3.22	3.7	4.31	3.52	4.43	4.35	3.04	–	–
NC(=O)NC(=O)c1cccc(NC(=O)CF)c1	> 100	> 100	> 100	> 100	> 100	> 100	> 100	> 100	> 100	> 100	–	–
O=C(Cc1ccccc1)NCCCN(CCCCN(CCCNC(=O)Cc1ccccc1)C(=O)OCc1ccccc1)C(=O)OCc1ccccc1	> 100	> 29.5	> 100	> 100	> 100	> 100	> 100	> 100	> 100	> 100	–	–
O=C1NC(=O)C(COCc2ccccc2)C2=C1SCCC2 (stereo not given)	> 100	> 100	> 100	> 100	> 100	> 100	> 100	> 100	> 100	–	–	–
O=c1oc2c(ccc3ccccc32)cc1C1=CSC2=NCCN12	71.1	> 100	38.7	> 100	> 100	> 100	> 100	> 100	> 100	> 100	–	–
O=C(O)CC1OCC=C2CN3CCC45C6=CC(=O)C(=O)C([N+](=O)[O-])=C6NC4C1C2CC35 (stereo not given)	> 100	61.8	> 100	> 100	> 100	> 100	> 100	> 100	> 100	> 100	–	–
O=C(/C=C/c1ccccc1)CSc1nc2ccc(I)cc2c(=O)n1Cc1ccccc1	> 100	> 59.2	66.9	> 68	> 90.6	> 88	> 94.5	51.9	> 100	> 84.6	–	–
CC(C)(C)OC(=O)N/N=C(/N)Cc1ccccc1	> 100	> 100	> 100	> 100	> 100	> 100	> 100	> 100	> 100	> 100	–	–
O=c1[nH]c(-c2ccccc2)nc2c1sc1nc3ccccc3n12	> 100	> 100	> 100	> 100	> 100	> 100	> 100	> 100	> 100	> 100	–	–
CCOP(=O)(OCC)C1=C(c2ccccc2)OC(N)=C(C#N)C1c1ccc(Cl)cc1 (stereo not given)	> 100	> 100	> 100	> 100	> 100	> 100	> 100	> 100	> 100	> 100	–	–

Compound	TGI (BT-549 breast) [µM]	TGI (CCRF-CEM leukemia) [µM]	TGI (HCC-2998 colon) [µM]	TGI (IGROV1 ovarian) [µM]	TGI (OVCAR-3 ovarian) [µM]	TGI (RPMI-8226 leukemia) [µM]	TGI (RXF 393 renal) [µM]	TGI (SF-268 CNS) [µM]	TGI (SK-MEL-28 melanoma) [µM]	TGI (TK-10 renal) [µM]	GI50 (RPMI-8226 leukemia) [µM]	GI50 (OVCAR-3 ovarian) [µM]
O=C(O)CC1(CC(=O)O)Nc2ccccc2SC1=O	> 100	> 100	> 100	> 100	> 100	> 100	> 100	> 100	> 100	> 100	–	–
O=C1/C(=C/c2ccccc2)CCC/C1=C\c1ccc(O)c(CN2CCCCC2)c1	10.5	> 100	5.46	11.2	22.9	> 100	26.7	17	17.5	31	–	–
O=C1Nc2ccccc2/C1=C/c1c(Cl)[nH]c2ccc(O)cc12	18.9	10.1	24.2	13.5	> 48.1	14.1	9.02	> 43.7	22.5	37.1	–	–
COc1cccc2c1C(=O)c1ccc3cc(CCl)cc(O)c3c1C2=O	1.39	1.98	1.46	1.54	0.696	1.37	0.756	1.42	1.04	0.823	–	–
O=C1/C(=C/c2c(Cl)[nH]c3ccccc23)c2ccccc2N1c1ccccc1	21.2	31.9	20.7	39.1	6.26	22.3	31.1	33.2	23.8	39.9	–	–
CCOc1ccc(NCC2CC/C(=C\c3ccc(O)cc3)C2=O)cc1 (stereo not given)	25.6	49	34	33.9	25.5	> 25.3	32.7	30.8	29.2	26.2	–	–
O=C1C(=C(I)I)c2ccccc2-c2ccccc21	15.5	2.48	7.54	17.6	3.82	3.95	3.22	20.4	7.94	3.86	–	–
CC1(C)OC(=O)C2(O1)C(=O)C1CCCCC12 (stereo not given)	> 100	> 100	> 100	> 100	> 100	> 100	> 100	> 100	> 100	> 100	–	–
Cn1c(=O)c2c(ncn2CCCCOc2ccc3c(c2)[n+]([O-])nc(N)[n+]3[O-])n(C)c1=O	70.6	> 100	52.6	67.6	> 100	> 100	80.4	> 100	> 100	> 100	–	–
COC1=CC(=O)c2c(O)c3c(c(O)c2C1=O)C=C(C)OC3O (stereo not given)	3.5	16.1	3.74	5.57	6.33	5.83	3.92	5.86	3.65	7.9	–	–
CC(C)/C(Cl)=N\OC(=O)Nc1ccc(F)cc1F	25.9	> 21.7	34	30.9	6.69	75.2	12.6	38.9	25.4	9.55	–	–
COC(=O)C1(Cc2ccc3c(c2)CCC3)Cc2ccc3c(c2C1)CCC3 (stereo not given)	56.9	> 100	> 100	74.6	60.1	46.9	83.3	> 100	> 100	> 100	–	–
COC(=O)C1=C(C)NC(C)=C(C(=O)OC)C1c1cccc(NO)c1	32.5	> 100	> 100	30.4	29.5	> 100	27.1	30.6	28.3	27.7	–	–
COC(C)(C)CCc1[nH]c2ccccc2c1CC(=O)NCCc1cncn1C	> 100	> 100	> 100	> 100	> 100	> 100	> 100	> 100	> 100	> 100	–	–
Cc1cc2nc(-c3c(F)cccc3F)n(Cc3c(F)cccc3F)c2cc1C	27.9	60.9	21.4	28.4	31.8	24	61	42.7	42.2	56.6	–	–
N#Cc1[nH]c(=O)n(-c2cccc3ccccc23)c1N	> 10	> 10	> 10	> 10	> 10	> 10	> 10	> 10	> 10	> 10	–	–
CCOc1cc2c(cc1O)/C(=N/NS(=O)(=O)c1ccc(C)cc1)C[C@@H]1[C@@H]2CC[C@]2(C)[C@@H](O)CC[C@@H]12	> 100	> 100	15.1	> 100	> 100	16	> 100	> 100	> 100	> 100	–	3.18
